Measured values reported in patent EP2271935B1, “METHOD AND KIT FOR THE EX VIVO EVALUATION OF THE RESPONSE OF A TUMOR TO CONDITIONS TO BE TESTED” (Universität Leipzig, priority 2008, dated 2009).
Read-outs that look alike come from different tables or passages of the source.

Test system: epithelial cell line KB (DSMZ ACC 136)
Test: MTT assay of proliferation under varied riboflavin content and light exposure
Format: cell-based, human
Text: To address this question, three media, a) the RPMI 1640 without riboflavin and phenol red that is used in the method according to the invention and was manufactured according to our specifications by Biochrom, as well as two different RPMI 1640 charges purchased from Invitrogen which were each containing 532 nmol/L riboflavin, b) a phenol red-free (Gibco 11835), and c) a conventional RPMI 1640 (Gibco 21875) with 13.284 µmol/L phenol red. All media were supplemented with 2 mmol/L L-alanyl-1-glutamine as stabilized glutamine source (Biochrom K0302 Lot 0755 S) and the same amount of 10% (v/v) of heat-inactivated fetal calf serum (FCS) that was purchased from Invitrogen (Lot 41Q7554K) with a yield of 198 nmol/L riboflavin. […] These medium concentrations define the riboflavin concentrations in controls (see below).
In addition to the influences exerted by the different types of media alone, the riboflavin-dependent impact on the outcome of the docetaxel treatment was investigated. For this purpose 100 µl/well of docetaxel dilutions containing threefold the concentration indicated were added into the wells of microwell plates. The following seven docetaxel concentrations were tested: 19.38, 38.75, 77.5, 155, 310, 620, and 1,240 pmol/L.
To examine photoactivation-dependent riboflavin-mediated effects disturbing the outcome of ex-vivo chemoresponse-evaluation by conventional cell culture medium, and in particular in the absence of flavin-protecting experimental conditions, varying amounts of riboflavin were added. A stock solution of 200 µM (-)-riboflavin (CAS 83-68-5, Sigma R9504, FW=376.37 g/mol, purity >99%, cell culture tested) in phosphate buffered saline was diluted to adjust in each case the highest final concentration in culture (this means: after completion of the assay by addition of the other two components to the final assay volume of 300 µL) to exactly 10 µmol/L. Serial log10-dilutions were made from this concentration in each corresponding medium. These gave final concentrations in cell culture of 10.000, 1.018, 0.12, and 0.03 µmol/L in the case of medium a) (the medium according to the method of the invention), and concentrations of 10.000, 1.449, 0.594, and 0.508 µmol/L using media b) and c).
In general, each combination of riboflavin and docetaxel were tested in duplicate, and controls without additional riboflavin in quadruplicate for each experimental setting in the same 96-well plate. The experimental conditions were as follows: For each of the used media, two different plates were prepared simultaneously and either handled completely under flavin-protecting conditions (illumination only by sodium discharge lamps with an emission wavelength of 589 nm [i]), or in the same bench (Thermo MSC 12) with the installed light inside their working chamber switched on. The dilution of docetaxel and those of riboflavin in the particular medium were prepared for all four plates of each medium type prior to the other working steps under flavin-protecting conditions. Thus the administrations of these dilutions took about 20 min either under flavin-protecting conditions or illuminated conditions. After completed preparation of the plates that thereafter contained 200 µL of both diluted compounds, the plates were incubated 2 h in the incubator to allow for adjustment of the appropriate pH.
In between the stock culture of KB was harvested by trypsination of a 3-days stock culture (exponential growth phase). Stock cultures of KB cells always were grown without any antibiotic or antimycotic in phenol red- and riboflavin-free RPMI 1640 supplemented with 10% (v/v) FCS and were adapted to this medium for more than five passages. They were always handled at room temperature or warmer and were never exposed to light other than the light of a sodium discharge lamp with an emission wavelength of 589 nm for at least five passages. […]

Work on `CC(=O)O[C@@]12CO[C@@H]1C[C@H](O)[C@@]1(C)C(=O)[C@H](O)C3=C(C)[C@@H](OC(=O)[C@H](O)[C@@H](NC(=O)OC(C)(C)C)c4ccccc4)C[C@@](O)([C@@H](OC(=O)c4ccccc4)[C@H]21)C3(C)C` [docetaxel] yielded an IC50 (Homo sapiens, Epithelial cell, 0.5 h, Plate No. 06; Riboflavin 594 nmol/L; medium b), daylight 30 min, read-out: IC50 for docetaxel normalized to medium control of medium with same riboflavin content) of 0.0838 nM, an IC50 (Homo sapiens, Epithelial cell, 0.5 h, Plate No. 07; Riboflavin 499 nmol/L; medium b) phenol red-free RPMI 1640, bench lighting <30 min, read-out: IC50 for docetaxel with reference to control with same riboflavin content) of 0.169 nM and an IC50 (Homo sapiens, Epithelial cell, 0.5 h, Plate No. 07; Riboflavin 499 nmol/L; medium b), bench lighting <30 min, read-out: IC50 for docetaxel normalized to medium control of medium with same riboflavin content) of 0.1 nM. For the same compound, the IC50 (Homo sapiens, Epithelial cell, 0.5 h, Plate No. 07; Riboflavin 508 nmol/L; medium b) phenol red-free RPMI 1640, bench lighting <30 min, read-out: IC50 for docetaxel with reference to control with same riboflavin content) was 0.124 nM, the IC50 (Homo sapiens, Epithelial cell, 0.5 h, Plate No. 07; Riboflavin 508 nmol/L; medium b), bench lighting <30 min, read-out: IC50 for docetaxel normalized to medium control of medium with same riboflavin content) was 0.0735 nM and the IC50 (Homo sapiens, Epithelial cell, 0.5 h, Plate No. 07; Riboflavin 594 nmol/L; medium b) phenol red-free RPMI 1640, bench lighting <30 min, read-out: IC50 for docetaxel with reference to control with same riboflavin content) was 0.172 nM. It also gave an IC50 (Homo sapiens, Epithelial cell, 0.5 h, Plate No. 07; Riboflavin 594 nmol/L; medium b), bench lighting <30 min, read-out: IC50 for docetaxel normalized to medium control of medium with same riboflavin content) of 0.102 nM, an IC50 (Homo sapiens, Epithelial cell, 0.5 h, Plate No. 07; Riboflavin 1449 nmol/L; medium b) phenol red-free RPMI 1640, bench lighting <30 min, read-out: IC50 for docetaxel with reference to control with same riboflavin content) of 0.128 nM and an IC50 (Homo sapiens, Epithelial cell, 0.5 h, Plate No. 07; Riboflavin 1449 nmol/L; medium b), bench lighting <30 min, read-out: IC50 for docetaxel normalized to medium control of medium with same riboflavin content) of 0.0759 nM. For the same compound, the IC50 (Homo sapiens, Epithelial cell, 0.5 h, Plate No. 07; Riboflavin 10000 nmol/L; medium b) phenol red-free RPMI 1640, bench lighting <30 min, read-out: IC50 for docetaxel with reference to control with same riboflavin content) was 0.135 nM, the IC50 (Homo sapiens, Epithelial cell, 0.5 h, Plate No. 07; Riboflavin 10000 nmol/L; medium b), bench lighting <30 min, read-out: IC50 for docetaxel normalized to medium control of medium with same riboflavin content) was 0.0801 nM and the IC50 (Homo sapiens, Epithelial cell, 0.5 h, Plate No. 08; Riboflavin 499 nmol/L; medium b) phenol red-free RPMI 1640, bench lighting <30 min, daylight 30 min, read-out: IC50 for docetaxel with reference to control with same riboflavin content) was 0.181 nM. The IC50 (Homo sapiens, Epithelial cell, 0.5 h, Plate No. 08; Riboflavin 499 nmol/L; medium b), bench lighting <30 min, daylight 30 min, read-out: IC50 for docetaxel normalized to medium control of medium with same riboflavin content) was 0.1 nM, the IC50 (Homo sapiens, Epithelial cell, 0.5 h, Plate No. 08; Riboflavin 508 nmol/L; medium b) phenol red-free RPMI 1640, bench lighting <30 min, daylight 30 min, read-out: IC50 for docetaxel with reference to control with same riboflavin content) was 0.186 nM and the IC50 (Homo sapiens, Epithelial cell, 0.5 h, Plate No. 08; Riboflavin 508 nmol/L; medium b), bench lighting <30 min, daylight 30 min, read-out: IC50 for docetaxel normalized to medium control of medium with same riboflavin content) was 0.103 nM. It also gave an IC50 (Homo sapiens, Epithelial cell, 0.5 h, Plate No. 08; Riboflavin 594 nmol/L; medium b) phenol red-free RPMI 1640, bench lighting <30 min, daylight 30 min, read-out: IC50 for docetaxel with reference to control with same riboflavin content) of 0.208 nM, an IC50 (Homo sapiens, Epithelial cell, 0.5 h, Plate No. 08; Riboflavin 594 nmol/L; medium b), bench lighting <30 min, daylight 30 min, read-out: IC50 for docetaxel normalized to medium control of medium with same riboflavin content) of 0.115 nM and an IC50 (Homo sapiens, Epithelial cell, 0.5 h, Plate No. 10; Riboflavin 499 nmol/L; medium c) conventional RPMI 1640 with phenol red, daylight 30 min, read-out: IC50 for docetaxel with reference to control with same riboflavin content) of 0.421 nM. For the same compound, the IC50 (Homo sapiens, Epithelial cell, 0.5 h, Plate No. 10; Riboflavin 499 nmol/L; medium c), daylight 30 min, read-out: IC50 for docetaxel normalized to medium control of medium with same riboflavin content) was 0.1 nM, the IC50 (Homo sapiens, Epithelial cell, 0.5 h, Plate No. 10; Riboflavin 508 nmol/L; medium c) conventional RPMI 1640 with phenol red, daylight 30 min, read-out: IC50 for docetaxel with reference to control with same riboflavin content) was 0.337 nM and the IC50 (Homo sapiens, Epithelial cell, 0.5 h, Plate No. 10; Riboflavin 508 nmol/L; medium c), daylight 30 min, read-out: IC50 for docetaxel normalized to medium control of medium with same riboflavin content) was 0.0801 nM. It also gave an IC50 (Homo sapiens, Epithelial cell, 0.5 h, Plate No. 10; Riboflavin 594 nmol/L; medium c) conventional RPMI 1640 with phenol red, daylight 30 min, read-out: IC50 for docetaxel with reference to control with same riboflavin content) of 0.264 nM, an IC50 (Homo sapiens, Epithelial cell, 0.5 h, Plate No. 10; Riboflavin 594 nmol/L; medium c), daylight 30 min, read-out: IC50 for docetaxel normalized to medium control of medium with same riboflavin content) of 0.0627 nM and an IC50 (Homo sapiens, Epithelial cell, 0.5 h, Plate No. 10; Riboflavin 1449 nmol/L; medium c) conventional RPMI 1640 with phenol red, daylight 30 min, read-out: IC50 for docetaxel with reference to control with same riboflavin content) of 0.136 nM. The IC50 (Homo sapiens, Epithelial cell, 0.5 h, Plate No. 10; Riboflavin 1449 nmol/L; medium c), daylight 30 min, read-out: IC50 for docetaxel normalized to medium control of medium with same riboflavin content) was 0.0323 nM and the IC50 (Homo sapiens, Epithelial cell, 0.5 h, Plate No. 11; Riboflavin 499 nmol/L; medium c) conventional RPMI 1640 with phenol red, bench lighting <30 min, read-out: IC50 for docetaxel with reference to control with same riboflavin content) was 0.225 nM.
